This note sets out measurements from patent US5399703A, “Tetrazole derivatives and drugs” (Nippon Shinyaku Company, Limited, priority 1990, dated 1995).

Read-outs that look alike come from different tables or passages of the source.

The target of one test is T1, LTD4 receptor (Cavia porcellus, UniProt Q2NNR5).
T1 construct: membrane fraction prepared from the guinea pig lung; from tissue; host or cells: guinea pig lung membrane fraction
T1 sequence (Q2NNR5 1-340): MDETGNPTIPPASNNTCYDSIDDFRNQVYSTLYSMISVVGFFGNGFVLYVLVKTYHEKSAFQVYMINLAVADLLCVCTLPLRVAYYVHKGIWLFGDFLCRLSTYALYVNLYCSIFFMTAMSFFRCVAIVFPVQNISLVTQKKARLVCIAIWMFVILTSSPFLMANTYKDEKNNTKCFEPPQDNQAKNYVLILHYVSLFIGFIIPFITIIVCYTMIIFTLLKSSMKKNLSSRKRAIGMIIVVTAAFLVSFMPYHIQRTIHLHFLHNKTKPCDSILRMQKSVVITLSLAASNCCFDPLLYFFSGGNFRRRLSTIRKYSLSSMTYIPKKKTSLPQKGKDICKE
Nature of the test: Leukotriene D4 (LTD4) binding assay (3H-LTD4, guinea pig lung membrane fraction). The conditions noted are these: for IC50: guinea pig lung membrane, 3H-LTD4, 25° C., 1 hour. How it is done:
1) Leukotriene D4 (LTD4) binding assay
First, 0.2 pmol of ^3 H-LTD4 and 100 μg of the membrane fraction prepared from the guinea pig lung were incubated at 25° C. for 1 hour and then the reaction mixture was filtered through a glass filter. The radioactivity of ^3 H-LTD4 bound to the membrane remaining on the glass filter was determined and this value was regarded as total binding (total).
Similarly, 100 μg of the membrane fraction was incubated with 0.2 pmol of ^3 H-LTD4 in the presence of a large excess of cold LTD4 (0.1 nmol) at 25° C. for 1 hour and the radioactivity of ^3 H-LTD4 bound to the membrane was determined and regarded as nonspecific binding (NSB).
Specific binding (SB) of ^3 H-LTD4 was calculated according to expression (1).
To investigate the effect of the test substance on LTD4 receptor binding, the test substance was added at the determination of total binding and the total binding in the presence of the test substance (total') was determined. The percent inhibition was calculated according to expression (2).
(total-total')/SB×100 (2)

For test [1], the system named is endogenous LT-induced airway contractile response in guinea pigs. The test is described as follows: Effect on endogenous leukotriene (LT)-induced experimental asthma. Format: in vivo. To be noted: guinea pig; for ED50: Cavia porcellus.
Test [2] relates to antigen-induced airway contractile response in guinea pigs. Nature of the test: Effect on experimental asthma (antigen-induced airway contractile response). The class given is in vivo. To be noted: guinea pig. As to the method: (4) Effect on experimental asthma
The airway contractile response to intravenous administration of an antigen (benzylpenicilloyl-bovine serum albumin) to guinea pigs passively senstitized with anti-benzylpenicilloyl-bovine gamma globulin guinea pig serum was determined by the Konzett-Rossler method.
The test substance suspended in 0.5% methylcellulose was administered orally and 3 hours later, the airway contractile response caused by antigen-antibody reaction was determined. With the response on complete obstruction of the airway cannula with a clamp taken as 100% contraction, the maximal airway contractile response (expressed in percent) caused by antigen antibody reaction was determined. From this value, the percent inhibition, relative to the control, by the test substance was determined.

As a reminder, the IC50 is the concentration that inhibits the measured activity by half. High values mean weaker potency, low ones greater potency. As a reminder, the ED50 is the dose that gives a 50% effect, or the effect in half of the subjects. In general, inhibition refers to the percentage by which the read-out fell short of the control.

For the compound `O=C(Nc1ccccc1Sc1ccccc1-c1nnn[nH]1)c1ccc(OCCCCc2ccccc2)cc1` [Example 4, N-[2-[2-(1H-Tetrazol-5-yl)phenylthio]phenyl]-4-(4-phenylbutoxy)benzamide], the IC50 on LTD4 receptor worked out at 35.8 nM. In test [1] (at 30 mg/kg), the “Endogenous LT-induced experimental asthma p.o. inhibition (%)” value is listed as 30.9%.
With `CCN(CC)C(=O)COC(=O)COc1ccc(C(=O)Nc2ccccc2Sc2ccccc2-c2nnn[nH]2)cc1` [Example 105, N,N-Diethylcarbamoylmethyl 4-[2-[2-(1H-tetrazol-5-yl)phenylthio]phenylcarbamoyl]phenoxyacetate], at LTD4 receptor, the IC50 amounted to 18200 nM. In test [1] (at 0.3 mg/kg), the “Endogenous LT-induced experimental asthma p.o. inhibition (%)” value amounted to 29.4%. Moreover, the “Experimental asthma p.o. inhibition (%)” value in test [2] (at 10 mg/kg) was 87.9%.
In the case of `CCCc1c(OCC(O)COc2ccc3c(=O)cc(C(=O)O)oc3c2CCC)ccc(C(C)=O)c1O` (stereo not drawn) [C, reference compound], the IC50 on LTD4 receptor came to 3820 nM. In addition, the ED50 in test [1] (iv, read-out: Endogenous LT-induced experimental asthma ED50 (i.v.)) stood at 0.2 mg/kg.
`O=C(O)COc1ccc(C(=O)Nc2ccccc2Sc2ccccc2-c2nnn[nH]2)cc1` [Example 6, 4-[2-[2-(1H-Tetrazol-5-yl)phenylthio]phenylcarbamoyl]phenoxyacetic acid] returned an inhibition at 10 µM on LTD4 receptor (at 10^-5 M) of 28.9%. Also, the “Endogenous LT-induced experimental asthma p.o. inhibition (%)” value in test [1] (at 0.1 mg/kg) amounted to 36.2%. In test [2] (at 30 mg/kg), the “Experimental asthma p.o. inhibition (%)” value is recorded as 37.9%.
Compound `CCCCOC(=O)COc1ccc(C(=O)Nc2ccccc2Sc2ccccc2-c2nnn[nH]2)cc1` [Example 67, Butyl 4-[2-[2-(1H-tetrazol-5-yl)phenylthio]phenylcarbamoyl]phenoxyacetate] displayed an IC50 on LTD4 receptor of 3340 nM. Further, the “Endogenous LT-induced experimental asthma p.o. inhibition (%)” value in test [1] (at 0.3 mg/kg) worked out at 61.2%. In addition, the “Experimental asthma p.o. inhibition (%)” value in test [2] (at 10 mg/kg) was 82.6%.
In the case of `CCCC/C=C/COc1ccc(C(=O)Nc2ccccc2Sc2ccccc2-c2nnn[nH]2)cc1` [Example 14, (E)-N-[2-[2-(1H-Tetrazol-5-yl)phenylthio]phenyl]-4-(2-heptenyloxy)benzamide], the IC50 on LTD4 receptor is 22 nM. Also, the “Endogenous LT-induced experimental asthma p.o. inhibition (%)” value in test [1] (at 30 mg/kg) was found to be 58.3%.
`CCCCCCOc1ccc(C(=O)Nc2ccccc2Sc2ccccc2-c2nnn[nH]2)cc1` [Example 7, N-[2-[2-(1H-Tetrazol-5-yl)phenylthio]phenyl]-4-hexyloxybenzamide] registered an IC50 on LTD4 receptor of 180 nM. Further, the ED50 in test [1] (po, 3 hours before antigen, read-out: Endogenous LT-induced experimental asthma p.o. ED50) is 0.111 mg/kg; in test [2] (Cavia porcellus, po, 3 hours before antigen) it was 3.52 mg/kg.
